The source of these data is patent US20030109537A1, “Methods and materials for treating bone conditions” (priority 2001, published 2003).

The subject of assay [1] is genes for cytokines and their receptors. As to the kind of experiment: cDNA microarray analysis of PTH-regulated genes in proximal tibial metaphysis. The format is in vivo, rat. The note with it: for genes regulated (of 8500 rat genes, Affymetrix): p<0.05. As to the method:
(§1) Induction of parathyroid bone disease. Three month-old female Sprague-Dawley rats (Harlan Sprague-Dawley, Inc., Indianapolis, Ind.) were randomly divided into 3 groups, with 5 rats per group. In group 1 (pulsatile or intermittent PTH), each rat received 80 μg/kg/day human PTH (1-34) (hPTH) in vehicle (150 mM NaCl, 1 mM HCl and 2% heat-inactivated rat serum) by subcutaneous (s.c.) injection once daily for 7 days. In group 2 (vehicle), an osmotic pump (Alza Corp., Mountainview, Calif.) that delivered vehicle alone at a rate of 1 μl/hr for 7 days was implanted in each rat. In group 3 (continuous PTH), an osmotic pump that delivered 40 μg/kg/day hPTH at a rate of 1 μl/hr for 7 days was implanted in each rat. On day 8, all rats were anesthetized with ketamine (50 mg/kg): xylazine HCl (5 mg/kg) and sacrificed by decapitation. Both tibiae were removed from each rat. Right tibiae were fixed by immersion in 70% ethanol then processed for bone histology to verify the appearance of peritrabecular fibrosis. Left tibiae were frozen in liquid N2 and stored at −80° C. until processed for RNA isolation.
(§2) Isolation of RNA. Frozen proximal tibial metaphyses were individually homogenized in guanidine isothiocyanate using a Spex freezer mill (Industries, Inc., Edison, N.J.). Total RNA was extracted from the homogenate using a modified organic solvent method. See Chomczynski et al., Anal. Biochem., 162:156-159 (1987). Isolated RNA yields were determined spectrophotometrically at 260 nm using standard methods.
cDNA microarray analysis. cDNA probes were generated by reverse transcription (Superscript II, Life Technologies, Rockville, Md.) using 1 μg total RNA isolated from the proximal tibial metaphysis of rats in groups 1, 2, and 3. First-strand cDNA probes were primed by the addition of oligo dT and subsequently labeled with [α-^33P]dCTP (ICN Radiochemicals Costa Mesa, Calif.). The labeled probes then were purified by passage through a Sephadex G-50 DNA Grade Column (Amersham Pharmacia Biotech AB, Uppsala, Sweden). The purified probes were hybridized to a rat genefilter microarray containing 5531 genes (GF 300; Research Genetics, Huntsville, Ala.). according to the manufacturer's recommended protocol. A micro-array system from Affymetrix, which contains 8500 genes, also was used. After hybridization, the array was washed and wrapped with plastic wrap before placing in a phosphor imaging cassette containing a Cyclone Storage Phosphor Screen (Packard, Downers Groves, Ill.). After 24 hours, the screen was imaged and the resulting images analyzed using Pathways 2.01 software to compare the signal intensities of spots.
Candidate genes associated with peritrabecular fibrosis were identified with cDNA microarrays containing 5531 or 8500 genes as described in Example 1. Approximately 14% of the total genes measured were differentially expressed by at least 2.5-fold between pulsatile and continuous PTH-treated groups. […] Of the regulated genes, 158 were unique to intermittent administration of PTH and 759 to continuous administration of PTH. An additional 158 genes were common to both treatments.
The list of candidate genes was examined to determine if any of the genes encoded growth factors. More specifically, it was determined if the differentially expressed genes were growth factors produced on or near bone surfaces, were chemotactic to fibroblasts, were able to stimulate fibroblast proliferation, or could induce bone resorption. One of the candidate genes, PDGF, a known mitogenic and chemotactic factor for fibroblasts, met all these criteria.

In another assay the test system is PDGF-A mRNA. As to the kind of experiment: RNase protection assay of steady state mRNA levels. It counts as in vivo, rat. On the procedure: as §1, §2
RNase protection assay. Steady state mRNA levels for PDGF-A and other growth factors were determined using an RNase protection assay kit according to the manufacturer's protocol (Pharmingen, San Diego, Calif.). Quantitation of protected RNA fragments was performed by PhosphoImager analyses and normalized to glyceraldehyde-3-phosphate dehydrogenase (GAPDH) and the ribosomal structural protein L32.
RNase protection assays were performed as described in Example 1, for PDGF-A, BMP-1, BMP-6, BMP-3, and TGF-β1 to verify the microarray data. […]

[2] abbreviates: continuous PTH, rat proximal tibial metaphysis, gene microarray.
Where [3] appears, read: continuous administration of PTH.
The mark [4] stands for this setting: intermittent administration of PTH.

In the case of human PTH (1-34), the “total genes differentially expressed by at least […] between pulsatile and continuous PTH-treated groups” value in assay [1] (cDNA microarrays) was “Approximately 14%”. For the same substance, in assay [1] (setting [2]), the “BMP-1 gene expression, Fold Change” value amounted to 1.3 fold; the “BMP-3 gene expression, Fold Change” value is recorded as 19 fold; the “BMP-6 gene expression, Fold Change” value was 1.6 fold; the “COX2 gene expression, Fold Change” value is given as 1.8 fold. Further, in assay [1] (setting [2]), the “FGF gene expression, Fold Change” value was 5.1 fold; the “FGF receptor-1 gene expression, Fold Change” value turned out to be 2.7 fold; the “IL-6 receptor gene expression, Fold Change” value is reported as −1.2 fold; the “IL-12p40 gene expression, Fold Change” value turned out to be 1.3 fold. Also, in assay [1] (setting [2]), the “PGE2 receptor EP3 gene expression, Fold Change” value turned out to be 1.7 fold; the “PTH receptor gene expression, Fold Change” value was 3.8 fold; the “TGF-β1 gene expression, Fold Change” value is on record as 1.5 fold; the “TGF-β3 gene expression, Fold Change” value is given as 1.9 fold. Moreover, the “PDGF-A gene expression, Fold Change” value in assay [1] (continuous PTH, rat proximal tibial metaphysis, gene microarray, n = 5) is on record as 85 fold. Moreover, in assay [1] (setting [3]), the “number of regulated genes unique to the regimen” value is given as 759 and the “genes regulated (of 8500 rat genes, Affymetrix)” value is 10.4%. In assay [1] (setting [4]), the “number of regulated genes unique to the regimen” value was found to be 158 and the “genes regulated (of 8500 rat genes, Affymetrix)” value turned out to be 3.6%. In assay [1] (intermittent and continuous PTH), the “number of regulated genes common to both treatments” value was 158. Besides, the “PTH-induced regulation of mRNA levels for BMP-1, -3, and -6, as well as TGF-β” value in the assay on PDGF-A mRNA (RNase protection assay verifying microarray data) was “confirmed”. The “increase in the mRNA levels for PDGF-A” value in the assay with PDGF-A mRNA (continuous PTH, rat tibial metaphysis, RNase protection assay, normalized to L32) is given as 3.3 fold. In addition, the “effect on steady state mRNA levels for PDGF-A” value in the assay on PDGF-A mRNA (pulsatile PTH, rat tibial metaphysis, RNase protection assay) is given as “no effect”.
